Data taken from patent publication US20070299139A1, “Lyophilisate Comprising N-Diaminomethylene-2-Methyl-4,5-Di(Methylsulfonyl)Benzamide” (priority 2004, published 2007).

Experiment: Stability of the active compound in aqueous solution
Format: physicochemical
Conditions: hydrolyses
From the text: The development of this active compound in intensive medicine requires that it is available in parenterally administrable form, best as aqueous solution.

stability in aqueous solution: not stable in aqueous solution
SMILES: Cc1cc(S(C)(=O)=O)c(S(C)(=O)=O)cc1C(=O)NC(=N)N [N-diaminomethylene-2-methyl-4,5-di(methylsulfonyl)benzamide]
